What was measured:
[1] = tested on: bio-BCL-2 (BCL-2 IM) (DNA, i motif) CAGCCCCGCTCCCGCCCCCTTCCTCCCGCGCCCGCCCCT; experiment: SPR; conditions: K+ 100 mM; 20 mM MES, pH 5.5, 25 °C
[2] = target: BCL-2 gene promoter i-motif; experiment: SPR binding to BCL-2 promoter i-motif; conditions: MES buffer pH 5.5, 25 °C
Protocol: SPR measurement was performed on a ProteOn XPR36 protein interaction array system (Bio-Rad Laboratories, Hercules, California, USA) using a Neutravidin-coated GLH sensor chip. BCL-2 i-motif binding analysis was performed following a published method without significant modification. For immobilization, 5′-biotin-labeled DNA oligomers at 800 nM annealed in 1 × MES buffer at pH 5.5 by heating at 95 °C for 5 min, were attached to a reptavidin-coated sensor chip. Compounds were prepared through serial dilution with flowing buffer (20 mM MES, 100 mM KCl, pH 5.5 for i-motif) in at least 6 concentrations, which were simultaneously injected at a flow rate of […] for a 120 s of association phase, followed by 250 s of dissociation phase at 25 °C. Langmuir model was used for fitting kinetic data, which was analyzed with ProteOn manager software. KD values were determined through equation KD = kd/ka. Compound A22 was used as a positive control, and other compounds were selected as candidates only if their KD values for binding to BCL-2 i-motif were similar to that of A22.

Aβ1-42 [3] = target: T1, Aβ1-42 (Homo sapiens, UniProt P05067); experiment: Thioflavine T fluorescence spectroscopy assay (time course to 96 h); format: biochemical; conditions: 20 μM compound, Aβ1-42 incubated for 96 h
T1 construct: Aβ1-42 was purchased from Gill Biochemicals Ltd (Shanghai, China); purchased Gill Biochemicals Ltd (Shanghai, China)
T1 sequence (P05067 672-713 limits assumed): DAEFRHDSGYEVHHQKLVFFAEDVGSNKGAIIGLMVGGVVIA
Protocol: (§1) The Aβ1-42 solutions (100 μM) were co-incubated with B14 (20 μM) or Curcumin (20 μM) at 37 °C protected from light for 96 h. 30 μL of Aβ1-42 solution was taken at different time points (0 h, 10 h, 24 h, 48 h, 72 h, 96 h), mixed fully with 400 μL of ThT solution (15 μM), and incubated in the dark for 30 min. The fluorescence signal was recorded by using a Cary Eclipse fluorescence spectrophotometer (Varian, USA) with the following setting: excitation wavelength at 440 nm, emission wavelength at 480 nm, and slit width of 20 nm.
as §1, with “μM) and” for “μM) or”, “Aβ1-42 solutions were” for “Aβ1-42 solution was”, “by” for “by using”, “with” for “with the following setting:”

Aβ1-42 [4] = target: T1, Aβ1-42; experiment: Congo red binding assay; format: biochemical; conditions: 20 μM compound, 72 h
Protocol: (§2) A total of 30 μM Congo red (Aladdin, Shanghai, China) solution (20 mM potassium phosphate, 50 mM NaCl, pH 7.4) was prepared and filtered with a 0.45 μm filter. The Aβ1-42 solutions (30 μM) were co-incubated with B14 (20 μM), A22 (20 μM), or Curcumin (20 μM) at 37 °C protected from light for 72h. The Aβ1-42 solution was mixed with equal volume of Congo red solution, followed by incubation for 30 min. A spectral region from 400 nm to 650 nm was measured by using a UV–vis spectrophotometer (AoE, China).
as §2, with “red” for “red (Aladdin, Shanghai, China)”, “μM) and” for “μM), A22 (20 μM), or”, “solution and incubated” for “solution, followed by incubation”, “analyzed” for “measured”, “UV-vis” for “UV–vis”

Aβ1-42 [5] = target: T1, Aβ1-42; experiment: Dot blot of Aβ1-42 fibril aggregation; format: biochemical; conditions: 20 μM compound, 24 h
Protocol: After incubation at 37 °C for 24 h, 10 μL aliquots of 20 μM Aβ1-42 reaction mixtures were spotted onto nitrocellulose membranes. Membranes were blocked for 2 h with 5 % non-fat milk in TBS. After washing, membranes were incubated with the anti-Aβ fibril antibody (1:1,000, CST, USA) dissolved in TBS containing 3 % bovine serum albumin (BSA, Beyotime, Jiangsu, China) and 0.01 % Tween-20 (Solarbio, Beijing, China), and developed using an alkaline-phosphatase anti-rabbit secondary antibody (1:5,000, Proteintech, China). The bands were then detected using an enhanced chemiluminescence (ECL) kit (Millipore, USA).
After incubation at 37 °C for 24h, 10 μL aliquots of 20 μM Aβ1-42 reactions were spotted onto nitrocellulose membranes. The membranes were blocked for 2 h with 5% non-fat milk in TBS. After washing, the membranes were incubated with the anti-Aβ fibril antibody (1:1000 dilution) dissolved in TBS containing 3% BSA and 0.01% Tween-20, and then developed using an alkaline-phosphatase antirabbit secondary antibody (1:5000 dilution). Invitrogen's Western Breeze Chemiluminescent kit was used to visualize the protein dots, and these dots were imaged using a FUJIFILM Luminescent Image Analyzer LAS-1000CH.

## O=c1c2cc(NCCCN3CCCC3)ccc2n(-c2ccc3occc3c2)c2ccc(NCCCN3CCCC3)cc12 [Compound B7]
[1]
  KD: > 50 µM
[2]
  Kd: > 50 µM

## O=c1c2ccccc2n(-c2ccc3occc3c2)c2ccc(NCCN3CCNCC3)cc12 [Compound A3]
[1]
  KD: > 50 µM
[2]
  Kd: > 50 µM

## CN(C)CCCNc1ccc2c(c1)c(=O)c1ccccc1n2-c1ccc2occc2c1 [Compound A2]
[1]
  KD: > 50 µM
[2]
  Kd: > 50 µM

## CN1CCN(CCCNc2ccc3c(c2)c(=O)c2cc(NCCCN4CCN(C)CC4)ccc2n3-c2ccc3occc3c2)CC1
[1]
  KD: > 50 µM

## CN1CCN(C=CC(=O)Nc2ccc3c(c2)c(=O)c2ccccc2n3-c2ccc3occc3c2)CC1 [Compound A15]
[2]
  Kd: > 50 µM

## CN1CCN(CCC(=O)Nc2ccc3c(c2)c(=O)c2ccccc2n3-c2ccc3occc3c2)CC1
[1]
  KD: > 50 µM

## O=c1c2cc(NCCCN3CCOCC3)ccc2n(-c2ccc3occc3c2)c2ccc(NCCCN3CCOCC3)cc12 [Compound B5]
[1]
  KD: > 50 µM
[2]
  Kd: > 50 µM

## COc1cc(/C=C/C(=O)CC(=O)/C=C/c2ccc(O)c(OC)c2)ccc1O [Curcumin, reference compound]
Aβ1-42 [3]
  decrease of ThT fluorescence intensity: 20.83 ± 1.68%
Aβ1-42 [4]
  absorbance of Congo red in the Aβ1-42 sample: some inhibitory effect, but much lower than B14
Aβ1-42 [5]
  formation of Aβ fibers (dot blot): relatively less significant effect compared with B14

## CCN(C=CC(=O)Nc1ccc2c(c1)c(=O)c1ccccc1n2-c1ccc2occc2c1)CC [Compound A13]
[2]
  Kd: > 50 µM

## CCN(CC)CCC(=O)Nc1ccc2c(c1)c(=O)c1ccccc1n2-c1ccc2occc2c1
[1]
  KD: > 50 µM

## CN1CCN(CCCNc2ccc3c(c2)C(=O)c2cc(NCCCN4CCN(C)CC4)ccc2C3c2ccc3occc3c2)CC1 [Compound B4]
[2]
  Kd: > 50 µM

## CCN(CC)CCC(=O)Nc1ccc2c(c1)c(=O)c1cc(NC(=O)CCN(CC)CC)ccc1n2-c1ccc2occc2c1 [Compound B13]
[1]
  KD: > 50 µM
[2]
  Kd: > 50 µM

## CN1CCN(CCCNc2ccc3c(c2)c(=O)c2ccccc2n3-c2ccc3occc3c2)CC1 [Compound A4]
[1]
  KD: > 50 µM
[2]
  Kd: > 50 µM

## O=c1c2ccccc2n(-c2ccc3occc3c2)c2ccc(NCCc3ccccn3)cc12 [Compound A10]
[1]
  KD: > 50 µM
[2]
  Kd: > 50 µM

## CCN(CC)CCCNc1ccc2c(c1)c(=O)c1cc(NCCCN(CC)CC)ccc1n2-c1ccc2occc2c1 [Compound B1]
[2]
  Kd: > 50 µM

## CN(C)CCCNc1ccc2c(c1)c(=O)c1cc(NCCCN(C)C)ccc1n2-c1ccc2occc2c1 [Compound B2]
[1]
  KD: > 50 µM
[2]
  Kd: > 50 µM

## CCN(CC)CCNc1ccc2c(c1)c(=O)c1ccccc1n2-c1ccc2occc2c1 [Compound A9]
[1]
  KD: 34.1 µM
[2]
  Kd: 34.1 µM

## CN(C)C=CC(=O)Nc1ccc2c(c1)c(=O)c1ccccc1n2-c1ccc2occc2c1 [Compound A14]
[2]
  Kd: > 50 µM

## O=c1c2cc(NCCN3CCOCC3)ccc2n(-c2ccc3occc3c2)c2ccc(NCCN3CCOCC3)cc12 [Compound B6]
[1]
  KD: > 50 µM
[2]
  Kd: > 50 µM

## O=C(CCN1CCCC1)Nc1ccc2c(c1)c(=O)c1cc(NC(=O)CCN3CCCC3)ccc1n2-c1ccc2occc2c1 [Compound B12]
[1]
  KD: > 50 µM
[2]
  Kd: > 50 µM

## CN(C)CCNc1ccc2c(c1)c(=O)c1ccccc1n2-c1ccc2occc2c1 [Compound A8]
[1]
  KD: > 50 µM
[2]
  Kd: > 50 µM

## O=c1c2ccccc2n(-c2ccc3occc3c2)c2ccc(NCCCN3CCCC3)cc12 [Compound A7]
[1]
  KD: > 50 µM
[2]
  Kd: > 50 µM

## CCN(CC)CCCNc1ccc2c(c1)c(=O)c1ccccc1n2-c1ccc2occc2c1 [Compound A1]
[2]
  Kd: > 50 µM

## O=C(CCCN1CCOCC1)Nc1ccc2c(c1)c(=O)c1ccccc1n2-c1ccc2occc2c1 [Compound A11]
[1]
  KD: > 50 µM
[2]
  Kd: > 50 µM

## CC1CCN(CCC(=O)Nc2ccc3c(c2)c(=O)c2ccccc2n3-c2ccc3occc3c2)CC1
[1]
  KD: > 50 µM

## CN(C)CCNc1ccc2c(c1)c(=O)c1cc(NCCN(C)C)ccc1n2-c1ccc2occc2c1 [Compound B8]
[1]
  KD: > 50 µM
[2]
  Kd: > 50 µM

## O=c1c2ccccc2n(-c2ccc3occc3c2)c2ccc(NCCN3CCOCC3)cc12 [Compound A6]
[1]
  KD: > 50 µM
[2]
  Kd: > 50 µM

## CC1CCN(C=CC(=O)Nc2ccc3c(c2)c(=O)c2ccccc2n3-c2ccc3occc3c2)CC1 [Compound A12]
[2]
  Kd: > 50 µM

## O=c1c2cc(NCCc3ccccn3)ccc2n(-c2ccc3occc3c2)c2ccc(NCCc3ccccn3)cc12 [Compound B10]
[1]
  KD: > 50 µM
[2]
  Kd: > 50 µM

## O=c1c2ccccc2n(-c2ccc3occc3c2)c2ccc(NCCCN3CCOCC3)cc12 [Compound A5]
[1]
  KD: > 50 µM
[2]
  Kd: > 50 µM

## CN(C)CCC(=O)Nc1ccc2c(c1)c(=O)c1ccccc1n2-c1ccc2occc2c1
[1]
  KD: > 50 µM

## CCN(CC)CCNc1ccc2c(c1)c(=O)c1cc(NCCN(CC)CC)ccc1n2-c1ccc2occc2c1 [Compound B9]
[1]
  KD: > 50 µM
[2]
  Kd: > 50 µM

## O=C(CCCN1CCOCC1)Nc1ccc2c(c1)c(=O)c1cc(NC(=O)CCCN3CCOCC3)ccc1n2-c1ccc2occc2c1 [Compound B11]
[1]
  KD: > 50 µM
[2]
  Kd: > 50 µM

## O=C(CCN1CCOCC1)Nc1ccc2c(c1)c(=O)c1ccccc1n2-c1ccc2occc2c1 [Compound A16]
[2]
  Kd: > 50 µM

## O=c1c2cc(NCCN3CCNCC3)ccc2n(-c2ccc3occc3c2)c2ccc(NCCN3CCNCC3)cc12 [Compound B3]
[1]
  KD: > 50 µM
[2]
  Kd: > 50 µM

— publication PMC11982498 (Redox Biology, 2025)
